System: TFEB
Assay: TFEB nuclear translocation assay, HeLa wt cells
Assay type: cell-based
Details: 2 hrs compound treatment, Table 1 does not say HeLa wt or TRPML1 KO
Protocol: For the TFEB nuclear translocation assay, HeLa wt or HeLa TRPML1 KO cells were plated at 2700 cells/well into black-walled, 384-well Cell carrier Ultra tissue culture treated plates in complete media and incubated overnight. The next day, cells are treated for 2 hrs with compounds and incubated at 37° C. Cells were then fixed for 30 minutes at room temperature in 4% final PFA and washed five times with 90 μL PBS. PBS is aspirated from the wells and the cells are blocked with 7.5 μL blocking buffer (1:1 PBS/Odyssey block buffer containing 0.1% triton x-100 and 1% goat serum). After 30-60 minutes of block, 7.5 μL of primary anti-TFEB (rabbit) antibody is added for a final dilution of 1:200 antibody in 15 μL blocking buffer. Plates are incubated overnight at 4° C. The following day, plates are washed again into PBS, 90 μL with 5 washes, all PBS is aspirated from the wells and the cells are incubated for 1 hr in 1:1000 goat-anti rabbit Alexa 488 secondary antibody, also containing 10 μg/mL Hoechst 33342. After the 1 hr room temperature incubation, plates are washed a final time into PBS, sealed with foil and imaged with an automated epifluorescence microscopy (PerkinElmer Operetta CLS). Four different fields were imaged per well using ×20 magnification for DAPI and FITC filter sets. Images were quantified using PerkinElmer Harmony software, briefly: apply flatfield correction (basic/advanced) for input images. Use the Find Nuclei building block with channel set at Hoechst to find the nuclei. Use the Find cytoplasm building block with channel set to Alexa 488 to find the cytoplasm. Use select cell region with Channel set at Alexa 488 and region of interest as Nuclei and define outer border at 0 μm and inner at 45 μm to cover complete nuclei. Use select cell region with Channel set at Alexa 488 and region of interest as ring region and define outer border at −5 μm and inner at 0 μm to define a ring around the nucleus. Use the find calculate intensity parameter to calculate intensity of the nuclear region and the ring region. Define results as Number of nuclei and ratio of A/B where A is Intensity of Nuclei and B is intensity of the ring region.
The compound numbers correspond to the compound numbers above in Tables A or B. Compounds having an activity designated as “++++” provided an AC50 of ≤2.00 μM; compounds having an activity designated as “+++” provided an AC50 of 2.01-8.00 μM; compounds having an activity designated as “++” provided an AC50 of 8.01-9.99 μM; and compounds having an activity designated as “+” provided an AC50 of ≥10.00 μM.

| Compound | AC50 [nM] |
| --- | --- |
| C[C@H](c1cccc(F)c1N1CCC(F)(F)CC1)S(=O)(=O)c1ccc(S(=N)(=O)N(C)C)cc1 (single isomer, unassigned) [Compound A-890] | 2010 to 8000 |
| C[C@H](c1cccc(F)c1N1CCC(F)(F)CC1)S(=O)(=O)c1ccc(S(=N)(=O)N(C)C)cc1 (single isomer, unassigned) [Compound A-891] | ≥ 10000 |
| C[C@H](c1cccc(F)c1N1CCC(C2(N3CCOCC3)CC2)CC1)S(=O)(=O)c1ccc(S(=N)(=O)N(C)C)cc1 (single isomer, unassigned) [Compound A-893] | ≥ 10000 |
| C[C@H](c1cccc(F)c1N1CCCCC1)S(=O)(=O)c1ccc(S(=N)(=O)N(C)C)cc1 (single isomer, unassigned) [Compound A-894] | 2010 to 8000 |
| C[C@H](c1cccc(F)c1N1CCCCC1)S(=O)(=O)c1ccc(S(=N)(=O)N(C)C)cc1 (single isomer, unassigned) [Compound A-895] | ≥ 10000 |
| C[C@@H]1CN(CC2CCN(c3c(F)cccc3[C@@H](C)S(=O)(=O)c3ccc(S(=N)(=O)N(C)C)cc3)CC2)C[C@H](C)O1 (single isomer, unassigned) [Compound A-903] | ≥ 10000 |
| CN(C)S(=O)(=O)c1ccc(S(=O)(=O)Nc2cccc(F)c2N2CCC(N3CCC4(CCOC4)C3)CC2)cc1 (single isomer, unassigned) [Compound A-910, N1-(2-(4-(2-oxa-7-azaspiro[4.4]nonan-7-yl)piperidin-1-yl)-3-fluorophenyl)-N4,N4-dimethylbenzene-1,4-disulfonamide] | 2010 to 8000 |
| CC(c1cccc(F)c1N1CCCCC1)S(=O)(=O)c1ccc(S(=O)(=O)N(C)C)cc1 (single isomer, unassigned) [Compound A-912, 4-((1-(3-fluoro-2-(piperidin-1-yl)phenyl)ethyl)sulfonyl)-N,N-dimethylbenzenesulfonamide] | ≤ 2000 |
| CC(c1cccc(F)c1N1CCC(CN2C3CCC2COC3)CC1)S(=O)(=O)c1ccc(S(C)(=O)=O)cc1 (single isomer, unassigned) [Compound A-913, 8-((1-(2-fluoro-6-(1-((4-(methylsulfonyl)phenyl)sulfonyl)ethyl)phenyl)piperidin-4-yl)methyl)-3-oxa-8-azabicyclo[3.2.1]octane] | ≤ 2000 |
| CC(c1cccc(F)c1N1CCC(CN2C3CCC2COC3)CC1)S(=O)(=O)c1ccc(S(C)(=O)=O)cc1 (single isomer, unassigned) [Compound A-914, 8-((1-(2-fluoro-6-(1-((4-(methylsulfonyl)phenyl)sulfonyl)ethyl)phenyl)piperidin-4-yl)methyl)-3-oxa-8-azabicyclo[3.2.1]octane] | ≥ 10000 |
| Cc1ccc(S(=O)(=O)C(C)c2cccc(F)c2N2CCC(CN3C4CCC3COC4)CC2)cc1 (single isomer, unassigned) [Compound A-924, 8-((1-(2-fluoro-6-(1-tosylethyl)phenyl)piperidin-4-yl)methyl)-3-oxa-8-azabicyclo[3.2.1]octane] | ≤ 2000 |
| C[C@@H](c1cccc(F)c1N1CCCCC1)S(=O)(=O)c1ccc(S(=N)(=O)N(C)C)cc1 (single isomer, unassigned) [Compound A-930] | 2010 to 8000 |
| CC(c1cccc(F)c1N1CCC(C)(C(F)F)CC1)S(=O)(=O)c1ccc(S(=O)(=O)N(C)C)cc1 (single isomer, unassigned) [Compound A-933, 4-((1-(2-(4-(difluoromethyl)-4-methylpiperidin-1-yl)-3-fluorophenyl)ethyl)sulfonyl)-N,N-dimethylbenzenesulfonamide] | ≤ 2000 |
| C[C@@H](c1cccc(F)c1N1CCC(C(F)(F)F)CC1)S(=O)(=O)c1ccc(S(=N)(=O)N(C)C)cc1 (single isomer, unassigned) [Compound A-935] | ≤ 2000 |
| CC(c1cccc(F)c1N1CCCCC1)S(=O)(=O)c1ccc(S(=N)(=O)C(F)F)cc1 (single isomer, unassigned) [Compound A-937, (difluoromethyl)(4-((1-(3-fluoro-2-(piperidin-1-yl)phenyl)ethyl)sulfonyl)phenyl)(imino)-l6-sulfanone] | 2010 to 8000 |
| CC(c1cccc(F)c1N1CCCCC1)S(=O)(=O)c1ccc(S(=N)(=O)C(F)F)cc1 (single isomer, unassigned) [Compound A-938, (difluoromethyl)(4-((1-(3-fluoro-2-(piperidin-1-yl)phenyl)ethyl)sulfonyl)phenyl)(imino)-l6-sulfanone] | ≥ 10000 |
| CC(c1cccc(F)c1N1CCCCC1)S(=O)(=O)c1ccc(S(=N)(=O)C(F)F)cc1 (single isomer, unassigned) [Compound A-939, (difluoromethyl)(4-((1-(3-fluoro-2-(piperidin-1-yl)phenyl)ethyl)sulfonyl)phenyl)(imino)-l6-sulfanone] | 2010 to 8000 |
| CC(c1cccc(F)c1N1CCCCC1)S(=O)(=O)c1ccc(S(=N)(=O)C(F)F)cc1 (single isomer, unassigned) [Compound A-940, (difluoromethyl)(4-((1-(3-fluoro-2-(piperidin-1-yl)phenyl)ethyl)sulfonyl)phenyl)(imino)-l6-sulfanone] | ≤ 2000 |
| CC(c1cccc(F)c1N1CCC(COC(C)(C)C)CC1)S(=O)(=O)c1ccc(S(=N)(=O)N(C)C)cc1 (single isomer, unassigned) [Compound A-946, 4-((1-(2-(4-(tert-butoxymethyl)piperidin-1-yl)-3-fluorophenyl)ethyl)sulfonyl)-N,N-dimethylbenzenesulfonimidamide] | ≤ 2000 |

Same assay, conditions: Homo sapiens, HeLa, 2 h, 2 hrs compound treatment, Table 1 does not say HeLa wt or TRPML1 KO

| Compound | AC50 [nM] |
| --- | --- |
| CC(c1cccc(F)c1N1CCC(CN2C[C@@H](C)O[C@H](C)C2)CC1)S(=O)(=O)c1ccc(S(=O)(=O)N(C)C)cc1 (single isomer, unassigned) [Compound A-885, 4-[1-[2-(4-{[2,6-dimethylmorpholin-4-yl]methyl}piperidin-1-yl)-3-fluorophenyl]ethanesulfonyl]-N,N-dimethylbenzene-1-sulfonamide] | ≤ 2000 |
| C[C@H](c1cccc(F)c1N1CCC(C2(N3CCOCC3)CC2)CC1)S(=O)(=O)c1ccc(S(=N)(=O)N(C)C)cc1 (single isomer, unassigned) [Compound A-892] | 8010 to 9990 |
| C[C@@H]1CN(CC2CCN(c3c(F)cccc3[C@@H](C)S(=O)(=O)c3ccc(S(=N)(=O)N(C)C)cc3)CC2)C[C@H](C)O1 (single isomer, unassigned) [Compound A-902] | ≥ 10000 |
| CN(C)S(=O)(=O)c1ccc(S(=O)(=O)Nc2cccc(F)c2N2CCC(N3CCC4(CCOC4)C3)CC2)cc1 (single isomer, unassigned) [Compound A-909, N1-(2-(4-(2-oxa-7-azaspiro[4.4]nonan-7-yl)piperidin-1-yl)-3-fluorophenyl)-N4,N4-dimethylbenzene-1,4-disulfonamide] | 2010 to 8000 |
| CC(c1cccc(F)c1N1CCCCC1)S(=O)(=O)c1ccc(S(=O)(=O)N(C)C)cc1 (single isomer, unassigned) [Compound A-911, 4-((1-(3-fluoro-2-(piperidin-1-yl)phenyl)ethyl)sulfonyl)-N,N-dimethylbenzenesulfonamide] | ≤ 2000 |
| CC(C)S(=N)(=O)c1ccc(S(=O)(=O)[C@H](C)c2cccc(F)c2N2CCCCC2)cc1 (single isomer, unassigned) [Compound A-923] | ≥ 10000 |
| CC(c1cccc(F)c1N1CCC(C)(C(F)F)CC1)S(=O)(=O)c1ccc(S(=O)(=O)N(C)C)cc1 (single isomer, unassigned) [Compound A-925, 4-((1-(2-(4-(difluoromethyl)-4-methylpiperidin-1-yl)-3-fluorophenyl)ethyl)sulfonyl)-N,N-dimethylbenzenesulfonamide] | ≤ 2000 |
| C[C@@H](c1cccc(F)c1N1CCCCC1)S(=O)(=O)c1ccc(S(=N)(=O)N(C)C)cc1 (single isomer, unassigned) [Compound A-929] | ≤ 2000 |
| C[C@@H]1CN(CC2CCN(c3c(F)cccc3[C@H](C)S(=O)(=O)c3ccc(S(=N)(=O)N(C)C)cc3)CC2)C[C@H](C)O1 (single isomer, unassigned) [Compound A-931] | ≤ 2000 |
| C[C@@H](c1cccc(F)c1N1CCC(C(F)(F)F)CC1)S(=O)(=O)c1ccc(S(=N)(=O)N(C)C)cc1 (single isomer, unassigned) [Compound A-932] | ≤ 2000 |
| C[C@@H](c1cccc(F)c1N1CCC(F)(F)CC1)S(=O)(=O)c1ccc(S(=N)(=O)N(C)C)cc1 (single isomer, unassigned) [Compound A-936] | ≤ 2000 |
| CC(c1cccc(F)c1N1CCCCC1)S(=O)(=O)c1ccc2c(c1)CCS2(=N)=O (single isomer, unassigned) [Compound A-959] | ≥ 10000 |

From patent US20230104936A1, “TRPML MODULATORS” (Casma Therapeutics, Inc., priority 2019, published 2023)
